Data set [1] concerns the target T1, human MrgprX1 (Homo sapiens, UniProt Q96LB2).
T1 construct: expressed in transfected cells
The data set can be described thus: MrgprX1 positive allosteric modulator (PAM) calcium FLIPR assay in HEK293 cells. To be noted: PAM activity in presence of EC20 concentration of BAM8-22; HEK293 cells stably transfected with human MrgprX1. The data set is classed as cell-based. The method, then:
HEK293 cells stably transfected with human MrgprX1 were plated onto poly-D-lysine-coated, black-walled, 96-well plates at a seeding density of 12,000 cells/well and grown for two days. On the day of the experiment, cells were incubated with Fluo-4 AM 2 μM, pluronic acid 0.04% and Trypan Red 1% in HBSS (pH 7.4, 100 μL) for 1 h at 37° C. For each different passage of cells, a BAM8-22 dose response was first conducted and the BAM8-22 EC20 determined. Test compounds were then dissolved and serially diluted in DMSO, further diluted with Trypan Red (1%)-containing HBSS (50 μL) and added to cells (0.33% DMSO concentration by volume) to first monitor for agonist activity. After 2.5 min, BAM8-22 at 4-fold EC20 (50 μL) was added to cells (0.25% DMSO concentration by volume) and the cells imaged on the FLIPR for an additional 2 minutes to monitor the test compounds for PAM activity. Finally, data were normalized to fluorescence signals obtained from 250 nM of BAM8-22 (maximum) and BAM8-22 at its EC20 concentration (minimum). EC50 of a test compound was defined as the concentration required to provoke a response halfway between the minimum and maximum response in the presence of EC20 concentration of BAM8-22.

Bounds are passed on as bounds.

T1 sequence (Q96LB2 whole entry): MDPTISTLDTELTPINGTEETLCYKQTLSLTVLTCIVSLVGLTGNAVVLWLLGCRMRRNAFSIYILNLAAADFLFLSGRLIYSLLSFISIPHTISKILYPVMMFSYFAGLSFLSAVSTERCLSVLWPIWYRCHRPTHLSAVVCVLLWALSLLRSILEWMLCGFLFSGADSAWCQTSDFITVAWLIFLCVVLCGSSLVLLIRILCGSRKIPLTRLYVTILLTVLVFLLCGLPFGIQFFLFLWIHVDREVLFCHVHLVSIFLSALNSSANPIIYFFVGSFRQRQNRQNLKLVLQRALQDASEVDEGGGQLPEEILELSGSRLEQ

For `CC(C)(C)c1sc2ncnc(OC3CCCCC3C(F)(F)F)c2c1-c1ccc(Cl)c(Cl)c1` (stereo not shown) [Compound 7af, 6-tert-butyl-5-(3,4-dichlorophenyl)-4-(2-(trifluoromethyl)cyclohexyloxy)thieno[2,3-d]pyrimidine], the melting point – broadly, the temperature of the solid-liquid transition – was 139 °C. Besides, the EC50 (usually the concentration giving half of the maximal effect) in data set [1] worked out at 100 nM.

`CC(C)(C)c1sc2ncnc(OC3CCCCC3F)c2c1-c1ccc(Cl)c(Cl)c1` (stereo not shown) [Compound 7ag, 6-tert-butyl-5-(3,4-dichlorophenyl)-4-(2-fluorocyclohexyloxy)thieno[2,3-d]pyrimidine] came in with a melting point of 144 °C. In addition, the EC50 in data set [1] came out at 100 nM.

The compound `CC(C)(C)c1sc2ncnc(OC3CCCCC3(C)C)c2c1-c1ccc(Cl)c(Cl)c1` (stereo not shown) [Compound 7ah, 6-tert-butyl-5-(3,4-dichlorophenyl)-4-(2,2-dimethylcyclohexyloxy)thieno[2,3-d]pyrimidine] registered a melting point of 128 °C. Moreover, the EC50 in data set [1] was found to be 300 nM.

Compound `CC(C)(C)c1sc2ncnc(OC3(C(F)(F)F)CCCCC3)c2c1-c1ccc(Cl)c(Cl)c1` [Compound 7ai, 6-tert-butyl-5-(3,4-dichlorophenyl)-4-(1-(trifluoromethyl)cyclohexyloxy)thieno[2,3-d]pyrimidine] showed a melting point of 142 °C. Also, in data set [1], the EC50 is over 10000 nM.

Turning to `CC(C)(C)c1sc2ncnc(Oc3c(F)cccc3F)c2c1-c1ccc(F)c(F)c1` [Compound 7ak, 6-tert-butyl-4-(2,6-difluorophenoxy)-5-(3,4-difluorophenyl)thieno[2,3-d]pyrimidine], the melting point is 185 °C. For the same compound, in data set [1], the EC50 was 70 nM.

Consider `CC(C)(C)c1sc2ncnc(Oc3ccccc3OC(F)(F)F)c2c1-c1ccc(F)c(F)c1` [Compound 7am, 6-tert-butyl-5-(3,4-difluorophenyl)-4-(2-(trifluoromethoxy)phenoxy)thieno[2,3-d]pyrimidine], for which the melting point is 146 °C. Moreover, in data set [1], the EC50 was 70 nM.

As to `CC(C)(C)c1sc2ncnc(Oc3ccccc3OC(F)(F)F)c2c1-c1ccc(Cl)cc1` [Compound 7an, 6-tert-butyl-5-(4-chlorophenyl)-4-(2-(trifluoromethoxy)phenoxy)thieno[2,3-d]pyrimidine], the melting point worked out at 136 °C. For the same compound, the EC50 in data set [1] stood at 80 nM.

Regarding `CC(C)(C)c1sc2ncnc(Oc3c(F)cccc3F)c2c1-c1ccc(Cl)cc1` [Compound 7ap, 6-tert-butyl-5-(4-chlorophenyl)-4-(2,6-difluorophenoxy)thieno[2,3-d]pyrimidine], the melting point worked out at 176 °C. In addition, in data set [1], the EC50 turned out to be 30 nM.

As to `CC(C)(C)c1sc2ncnc(Oc3ccccc3OC(F)(F)F)c2c1-c1cccc(Cl)c1` [Compound 7aq, 6-tert-butyl-5-(3-chlorophenyl)-4-(2-(trifluoromethoxy)phenoxy)thieno[2,3-d]pyrimidine], the melting point was 129 °C. Also, the EC50 in data set [1] is 100 nM.

For the compound `CC(C)(C)c1sc2ncnc(Oc3c(F)cccc3OC(F)(F)F)c2c1-c1cccc(Cl)c1` [Compound 7ar, 6-tert-butyl-5-(3-chlorophenyl)-4-(2-fluoro-6-(trifluoromethoxy)phenoxy)thieno[2,3-d]pyrimidine], the melting point amounted to 126 °C. Moreover, the EC50 in data set [1] came to 30 nM.

Compound `CC(C)(C)c1sc2ncnc(Oc3c(F)cccc3F)c2c1-c1cccc(Cl)c1` [Compound 7as, 6-tert-butyl-5-(3-chlorophenyl)-4-(2,6-difluorophenoxy)thieno[2,3-d]pyrimidine] yielded a melting point of 146 °C. The EC50 in data set [1] came to 50 nM.

The compound `CC(C)(C)c1sc2ncnc(Oc3c(F)cccc3F)c2c1-c1ccc(F)cc1` [Compound 7at, 6-tert-butyl-4-(2,6-difluorophenoxy)-5-(4-fluorophenyl)thieno[2,3-d]pyrimidine] showed a melting point of 186 °C. Moreover, the EC50 in data set [1] came to 70 nM.

Consider `CC(C)(C)c1sc2ncnc(Oc3ccccc3F)c2c1-c1ccc(F)cc1` [Compound 7au, 6-tert-butyl-4-(2-fluorophenoxy)-5-(4-fluorophenyl)thieno[2,3-d]pyrimidine], for which the melting point was 194 °C. The EC50 in data set [1] came to 300 nM.

Take `CC(C)(C)c1sc2ncnc(Oc3ccccc3OC(F)(F)F)c2c1-c1cccc(F)c1` [Compound 7av, 6-tert-butyl-5-(3-fluorophenyl)-4-(2-(trifluoromethoxy)phenoxy)thieno[2,3-d]pyrimidine]: the melting point came to 150 °C. The EC50 in data set [1] turned out to be 100 nM.

In turn, `CC(C)(C)c1sc2ncnc(Oc3c(F)cccc3F)c2c1-c1cccc(F)c1` [Compound 7aw, 6-tert-butyl-4-(2,6-difluorophenoxy)-5-(3-fluorophenyl)thieno[2,3-d]pyrimidine] displayed a melting point of 180 °C. In data set [1], the EC50 turned out to be 100 nM.

Compound `CC(C)(C)c1sc2ncnc(Sc3ccccc3OC(F)(F)F)c2c1-c1ccc(Cl)c(Cl)c1` [Compound 7ax, 6-tert-butyl-5-(3,4-dichlorophenyl)-4-(2-(trifluoromethoxy)phenylthio)thieno[2,3-d]pyrimidine] registered a melting point of 165 °C. Moreover, the EC50 in data set [1] amounted to 200 nM.

`Cc1nc(Oc2ccccc2)c2ccsc2n1` [Compound 7ay, 2-methyl-4-phenoxythieno[2,3-d]pyrimidine] returned a melting point of 100 °C. The EC50 in data set [1] is 6000 nM.

In turn, `CC(C)(C)c1sc2ncnc(Oc3c(F)cccc3OC(F)(F)F)c2c1N1CCCC1` [Compound 7bf, 6-(tert-butyl)-4-(2-fluoro-6-(trifluoromethoxy)phenoxy)-5-(pyrrolidin-1-yl)thieno[2,3-d]pyrimidine] came in with a melting point of 115 °C. Besides, the EC50 in data set [1] worked out at 30 nM.

As for `CC(C)(C)c1sc2ncnc(Oc3c(F)cccc3OC(F)(F)F)c2c1N1CCCCC1` [Compound 7bh, 6-(tert-butyl)-4-(2-fluoro-6-(trifluoromethoxy)phenoxy)-5-(piperidin-1-yl)thieno[2,3-d]pyrimidine], the melting point is 133 °C. In addition, in data set [1], the EC50 amounted to 40 nM.

`CC(C)(C)c1sc2ncnc(Oc3c(F)cccc3F)c2c1N1CCOCC1` [Compound 7bi, 4-(6-(tert-butyl)-4-(2,6-difluorophenoxy)thieno[2,3-d]pyrimidin-5-yl)morpholine] gave a melting point of 173 °C. For the same compound, the EC50 in data set [1] is 40 nM.

With `CCN(CC)c1c(C(C)(C)C)sc2ncnc(Oc3c(F)cccc3OC(F)(F)F)c12` [Compound 7bj, 6-(tert-butyl)-N,N-diethyl-4-(2-fluoro-6-(trifluoromethoxy)phenoxy)thieno[2,3-d]pyrimidin-5-amine], the melting point was 72 °C. In data set [1], the EC50 was determined as 70 nM.

As to `CC(C)(C)c1oc2ncnc(Oc3c(F)cccc3OC(F)(F)F)c2c1C(=O)N1CCCCC1` [Compound 7bk, (6-(tert-butyl)-4-(2-fluoro-6-(trifluoromethoxy)phenoxy)furo[2,3-d]pyrimidin-5-yl)(piperidin-1-yl)methanone], the melting point lay within 159 to 161 °C. The EC50 in data set [1] came out at 100 nM.

In the case of `CC(C)(C)c1sc2ncnc(Oc3c(Cl)cccc3OC(F)(F)F)c2c1-c1ccc(Cl)c(Cl)c1` [Compound 7c, 6-tert-butyl-4-(2-chloro-6-(trifluoromethoxy)phenoxy)-5-(3,4-dichlorophenyl)thieno[2,3-d]pyrimidine], the melting point was determined as 66 °C. Also, the EC50 in data set [1] was found to be 300 nM.

`CC(C)(C)c1sc2ncnc(Oc3cccc(OC(F)(F)F)c3)c2c1-c1ccc(Cl)c(Cl)c1` [Compound 7d, 6-tert-butyl-5-(3,4-dichlorophenyl)-4-(3-(trifluoromethoxy)phenoxy)thieno[2,3-d]pyrimidine] registered a melting point of 121 °C. For the same compound, the EC50 in data set [1] was over 10000 nM.

Consider `CC(C)(C)c1sc2ncnc(Oc3ccc(OC(F)(F)F)cc3)c2c1-c1ccc(Cl)c(Cl)c1` [Compound 7e, 6-tert-butyl-5-(3,4-dichlorophenyl)-4-(4-(trifluoromethoxy)phenoxy)thieno[2,3-d]pyrimidine], for which the melting point was determined as 103 °C. In data set [1], the EC50 is over 100000 nM.

Take `CC(C)(C)c1sc2ncnc(Oc3cccnc3F)c2c1-c1ccc(Cl)c(Cl)c1` [Compound 7g, 6-tert-butyl-5-(3,4-dichlorophenyl)-4-(2-fluoropyridin-3-yloxy)thieno[2,3-d]pyrimidine]: the melting point was found to be 164 °C. The EC50 in data set [1] stood at 1000 nM.

The compound `CC(C)(C)c1sc2ncnc(Oc3cccnc3OC(F)(F)F)c2c1-c1ccc(Cl)c(Cl)c1` [Compound 7h, 6-tert-butyl-5-(3,4-dichlorophenyl)-4-(2-(trifluoromethoxy)pyridin-3-yloxy)thieno[2,3-d]pyrimidine] registered a melting point of 117 °C. Also, the EC50 in data set [1] is 4000 nM.

The compound `CC(C)(C)c1sc2ncnc(Oc3cccnc3N)c2c1-c1ccc(Cl)c(Cl)c1` [Compound 7j, 3-(6-tert-butyl-5-(3,4-dichlorophenyl)thieno[2,3-d]pyrimidin-4-yloxy)pyridin-2-amine] showed a melting point of 207 °C. In data set [1], the EC50 was found to be 30000 nM.

As for `CC(C)(C)c1sc2ncnc(Oc3ccnnc3)c2c1-c1ccc(Cl)c(Cl)c1` [Compound 7k, 6-tert-butyl-5-(3,4-dichlorophenyl)-4-(pyridazin-4-yloxy)thieno[2,3-d]pyrimidine], the melting point was found to be 186 °C. In data set [1], the EC50 is over 100000 nM.

The record behind these values is US20240002395A1, “COMPOUNDS AND THEIR USE FOR TREATING NEUROPATHIC PAIN” (The Johns Hopkins University, priority 2020, published 2024).
